Patent US12195427B2, “MASP-2 inhibitors and methods of use” (priority 2018, dated 2025)
Counter-ions that a name gives are not always drawn.

Target: MASP-2 CCP2-SP (Homo sapiens (Human), UniProt O00187)
Experiment: MASP-2 co-crystallization, X-ray crystallography and structure analysis (H-bonds, van der Waals contacts);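 on Ligand-pharmacophore element distance, pharmacophore element C2: distance from averaged pharmacophore element to bound ligand; missing value means element absent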;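 on Ligand-pharmacophore element distance, pharmacophore element C3: distance from averaged pharmacophore element to bound ligand; missing value means element absent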;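 on Ligand-pharmacophore element distance, pharmacophore element C4: distance from averaged pharmacophore element to bound ligand; missing value means element absent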;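 on Ligand-pharmacophore element distance, pharmacophore element C5: distance from averaged pharmacophore element to bound ligand; missing value means element absent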
Parameters: van der Waals contact distance, MASP-2 HIS 483 atom CD2 / van der Waals contact distance, MASP-2 HIS 483 atom NE2 / van der Waals contact distance, SER 654 C to compound atom / van der Waals contact distance, SER 654 O to compound atom / van der Waals contact distance, TRP 655 C to compound atom / van der Waals contact distance, MASP-2 GLY 528 atom CA / van der Waals contact distance TRP 655 atom CZ3 / van der Waals contact distance TRP 655 atom N / van der Waals contact distance TRP 655 atom CE3 / van der Waals contact distance GLY 656 atom C / van der Waals contact distance GLY 656 atom CA / van der Waals contact distance GLY 656 atom O / van der Waals contact distance, MASP-2 TYR 607 atom CD1 / van der Waals contact distance, MASP-2 PRO 606 atom O / d(C3,CA1) / d(CA1,N1)2 / d(H4,O1) / d(H4,O2) / d(O1,O2) / d(CA1,O2) / d(CA6,O1) / d(CA6,O2) / d(CA1,C5) / d(O2,H3) / d(N2,C2) / d(CA5,N2) / d(N2,C4) / d(N2,C6) / d(N2,CA3) / d(N2,O3) / d(O4,H2): unit not given beside the values
Conditions: for Ligand-pharmacophore element distance, pharmacophore element C2 / Ligand-pharmacophore element distance, pharmacophore element C3 / Ligand-pharmacophore element distance, pharmacophore element C4 / Ligand-pharmacophore element distance, pharmacophore element C5 / Ligand-pharmacophore element distance, pharmacophore element C6 / Ligand-pharmacophore element distance, pharmacophore element C7 / Ligand-pharmacophore element distance, pharmacophore element CA1 / Ligand-pharmacophore element distance, pharmacophore element CA2 / Ligand-pharmacophore element distance, pharmacophore element CA3 / Ligand-pharmacophore element distance, pharmacophore element CA4 / Ligand-pharmacophore element distance, pharmacophore element CA5 / Ligand-pharmacophore element distance, pharmacophore element CA6: Table A4-1; for d(N2,C2) / d(N2,CA2) / d(O2,H3) / d(O2,N2): Table A5-2 pharmacophore distance, S3/S4 region; for a(O1, O2, H3) / a(O1, O2, N2) / a(O2, N2, C2) / a(O2, N2, CA2): Table A6-2 pharmacophore angle
Procedure, shortened: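 First, CCP2-SP constructs with or without a 6His tag are produced in E. coli. Crystals are then soaked once or twice with inhibitor, cryoprotected in 20% glycerol or frozen directly, and diffracted at synchrotron beamlines. Phasing uses molecular replacement with parts of 1Q3X.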

[1] = Table A5-1 pharmacophore: distance between elements, S2/S1 region
[2] = Table A7-1, between pharmacophore elements of the bound compound
[3] = Table A7-2, between pharmacophore elements of the bound compound

Sequence of MASP-2 CCP2-SP (O00187 445-686): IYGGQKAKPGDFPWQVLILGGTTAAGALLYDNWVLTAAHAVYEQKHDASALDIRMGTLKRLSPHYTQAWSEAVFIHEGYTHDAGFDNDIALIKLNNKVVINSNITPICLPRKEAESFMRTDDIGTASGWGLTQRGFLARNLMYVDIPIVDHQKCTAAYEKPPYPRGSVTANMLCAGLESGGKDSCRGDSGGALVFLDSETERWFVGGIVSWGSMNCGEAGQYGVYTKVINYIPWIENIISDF
Sequence of MASP-2 CCP2-SP (O00187 364-432 partner): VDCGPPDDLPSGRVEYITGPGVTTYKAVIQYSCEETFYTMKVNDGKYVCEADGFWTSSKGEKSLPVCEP

`N=C(N)c1ccc(CNC(=O)C(CF)NC(=O)[C@H](N)CCc2ccccc2)cc1` (stereo partly drawn) [compound 1050, (2R)-2-Amino-N-(1-((4-carbamimidoylbenzyl)amino)-3-fluoro-1-oxopropan-2-yl)-4-phenylbutanamide Dihydrochloride] was tested, and the “H-bond distance to MASP-2 GLY 656 atom N” value (Table A1 (H-Bonds), GLY 656 N) was 3.18, the “H-bond distance to MASP-2 GLY 656 atom O” value (Table A1 (H-Bonds), GLY 656 O) was 2.58 and the “H-bond distance to MASP-2 SER 654 atom O” value (Table A1 (H-Bonds), SER 654 O) was 3.03. For the same compound, the “H-bond distance to MASP-2 SER 657 atom O” value (Table A1 (H-Bonds), SER 657 O) was 2.86, the “van der Waals contact distance, MASP-2 PHE 529 atom CD1” value (Table A2-3) was 3.61 and the “van der Waals contact distance, MASP-2 PHE 529 atom CE1” value (Table A2-3) was 3.56. The “van der Waals contact distance, MASP-2 PHE 529 atom CZ” value (Table A2-3) was 3.88, the “van der Waals contact distance, MASP-2 amino acid atom to compound atom” value (Table A2-5: TYR 607 (CE1, CE2, OH), PRO 608 (CD, CG), SER 611 (CA)) was 3.68 and the “van der Waals contact distance, MASP-2 amino acid atom to compound atom” value (Table A2-9, ARG 630, AA atoms CG, CZ) was 3.66. For the same compound, the “van der Waals contact distance, MASP-2 amino acid atom to compound atom” value (Table A2-9 second part, ARG 630, AA atoms N, NE, NH1) was 3.66, the “van der Waals contact distance, VAL 653 CG1 to compound atom” value (Table A2-11) was 3.74 and the “van der Waals contact distance, SER 654 O to compound atom” value (Table A2-12) was 3.72. For the same compound, the “van der Waals contact distance TRP 655 atom CZ3” value (Table A2-13, MASP-2 TRP 655 CZ3) was 3.81, the “van der Waals contact distance TRP 655 atom N” value (Table A2-13, MASP-2 TRP 655 N) was 3.74 and the “Ligand-pharmacophore element distance, pharmacophore element C2” value was 6.95. The “Ligand-pharmacophore element distance, pharmacophore element C3” value was 0, the “Ligand-pharmacophore element distance, pharmacophore element C4” value was 0 and the “Ligand-pharmacophore element distance, pharmacophore element C5” value was 0. The “Ligand-pharmacophore element distance, pharmacophore element C6” value was 0, the “Ligand-pharmacophore element distance, pharmacophore element C7” value was 0 and the “Ligand-pharmacophore element distance, pharmacophore element CA1” value was 0.57. The “Ligand-pharmacophore element distance, pharmacophore element CA2” value was 0.33, the “Ligand-pharmacophore element distance, pharmacophore element CA3” value was 0 and the “Ligand-pharmacophore element distance, pharmacophore element CA4” value was 0. The “Ligand-pharmacophore element distance, pharmacophore element CA5” value was 0, the “Ligand-pharmacophore element distance, pharmacophore element CA6” value was 0 and the “d(CA1,N1)” value [1] was 3.47. For the same compound, the “d(CA1,O1)” value [1] was 4.10, the “d(CA1,O2)” value [1] was 4.29 and the “d(H4,O1)” value [1] was 4.58. For the same compound, the “d(H4,O2)” value [1] was 4.38, the “d(O1,O2)” value [1] was 3.01 and the “d(N2,C2)” value was 6.69. For the same compound, the “d(N2,CA2)” value was 5.73, the “d(O2,H3)” value was 2.72 and the “d(O2,N2)” value was 2.76. The “a(CA1, O1, O2)” value (Table A6-1 pharmacophore angle) was 114.34, the “a(O1, O2, H4)” value (Table A6-1 pharmacophore angle) was 140.76 and the “A(N1, CA1, O1) a)” value (Table A6-1 pharmacophore angle, all compounds with protonatable center N1 except Methyl-amino-pyridine) was 160.78. For the same compound, the “a(O1, O2, H3)” value was 137.51, the “a(O1, O2, N2)” value was 140.97 and the “a(O2, N2, C2)” value was 159.29. For the same compound, the “a(O2, N2, CA2)” value was 153.66, the “Pharmacophore torsion angle a(H4, O1, O2, H3)” value [2] was 102.21 and the “Pharmacophore torsion angle a(H4, O1, O2, N2)” value [2] was 123.45. For the same compound, the “Pharmacophore torsion angle a(N1, CA1, O2, H4)” value [2] was −131.38, the “Pharmacophore torsion angle a(O1, H4, O2, CA1)” value [2] was −58.32 and the “Pharmacophore torsion angle a(O1, O2, N2, C2)” value [2] was 66.94. The “Pharmacophore torsion angle a(O1, O2, N2, CA2)” value [3] was 147.29.

For `Cc1nc(N)ccc1CNC(=O)[C@H](C)NC(=O)[C@H]1C[C@@H](c2cccc3ccccc23)CCN1.Cl.Cl` [1297_4], the “Ligand-pharmacophore element distance, pharmacophore element C2” value was 0.31, the “Ligand-pharmacophore element distance, pharmacophore element C3” value was 0.18 and the “Ligand-pharmacophore element distance, pharmacophore element C4” value was 0. The “Ligand-pharmacophore element distance, pharmacophore element C5” value was 0, the “Ligand-pharmacophore element distance, pharmacophore element C6” value was 0 and the “Ligand-pharmacophore element distance, pharmacophore element C7” value was 0. The “Ligand-pharmacophore element distance, pharmacophore element CA1” value was 0.48, the “Ligand-pharmacophore element distance, pharmacophore element CA2” value was 0.24 and the “Ligand-pharmacophore element distance, pharmacophore element CA3” value was 0. The “Ligand-pharmacophore element distance, pharmacophore element CA4” value was 0.98, the “Ligand-pharmacophore element distance, pharmacophore element CA5” value was 0 and the “Ligand-pharmacophore element distance, pharmacophore element CA6” value was 0. The “d(C3,CA1)” value [1] was 2.87, the “d(CA1,N1)2” value [1] was 1.37 and the “d(CA1,O1)” value [1] was 4.44. For the same compound, the “d(CA1,O2)” value [1] was 3.67, the “d(H4,O1)” value [1] was 4.35 and the “d(H4,O2)” value [1] was 3.67. The “d(O1,O2)” value [1] was 3.50, the “d(N2,C2)” value was 1.47 and the “d(N2,CA2)” value was 5.72. For the same compound, the “d(O2,H3)” value was 4.02, the “d(O2,N2)” value was 2.76 and the “a(C3, CA1, O1)” value (Table A6-1 pharmacophore angle) was 149.60. The “a(CA1, O1, O2)” value (Table A6-1 pharmacophore angle) was 103.60, the “a(O1, O2, H4)” value (Table A6-1 pharmacophore angle) was 129.06 and the “a(N1, CA1, O1) b)” value (Table A6-1 pharmacophore angle, Methyl-amino-pyridine compounds) was 174.41. The “a(O1, O2, H3)” value was 145.24, the “a(O1, O2, N2)” value was 143.80 and the “a(O2, N2, C2)” value was 131.10. The “a(O2, N2, CA2)” value was 156.08, the “Pharmacophore torsion angle a(C3, CA1, O1, H4)” value [2] was 28.23 and the “Pharmacophore torsion angle a(H4, O1, O2, H3)” value [2] was 51.40. For the same compound, the “Pharmacophore torsion angle a(H4, O1, O2, N2)” value [2] was 142.36, the “Pharmacophore torsion angle a(N1, CA1, O1, H4)” value [2] was 26.25 and the “Pharmacophore torsion angle a(O1, H4, O2, CA1)” value [2] was −89.51. The “Pharmacophore torsion angle a(O1, O2, N2, C2)” value [2] was 110.29, the “Pharmacophore torsion angle a(O1, O2, N2, CA2)” value [3] was 126.11 and the “Pharmacophore torsion angle a(O1, O2, N2, CA4)” value [3] was 105.94.
